This is an account of results in US10301277B2, “Substituted ureas and methods of treating mental illness using the same” (ZHEJIANG JINGXIN PHARMACEUTICAL CO., LTD., priority 2016, dated 2019).

Structures are written as SMILES. pKi: −log10 of the molar value.

As a reminder, the pKi is −log10 of the Ki, conventionally taken in molar units. For orientation: LD50 means the dose at which mortality reaches 50%.

For data set [1], the system named is MK-801-induced schizophrenia model. As to the kind of experiment: MK-801-induced schizophrenia model, open field running behavior. It is filed as in vivo, Sprague-Dawley rats. As to conditions: for inhibition of high spontaneous activity of MK-801-induced rats: dose of 0.3 mg/kg, compared with MK-801 model control; for Total Distance within 61-150 minutes / Improvement Rate: single oral administration 0.3 mg/kg; for Total Distance within 61-150 minutes: MK-801 0.3 mg/kg i.p., x ± SD; for Improvement Rate: versus MK-801 model control. As to the method:
(I) Modeling of MK-801-Induced Schizophrenia in Mice
Each rat was placed in a soundproof box for 30 minutes on the day before the test to adapt. On the next day, each rat was administrated with the respective test compounds, and after 30 minutes, administrated intraperitoneally with a 0.3 mg/kg MK-801 solution at 5.0 mL/kg body weight of the rat to build a model of MK-801-induced schizophrenia in mice.
(II) Observation of Open Field Running Behavior
Mice were administered with MK-801 and then immediately placed in the soundproof box. The total distances of motion of mice within 2.5 hours were observed and recorded. Improvement rate=(total distance of model control−total distance of administration)/(total distance of model control)×100%. (III) Statistical Method
All the data was expressed with x±SD and processed by SPSS17.0 software statistical package. T-test and one-way analysis of variance were performed to compare the mean of two samples, with P<0.05 as significant difference.

The target of another data set is T1, Dopamine D2 receptor (Homo sapiens, UniProt P14416).
T1 construct: expressed in transfected cells
Kind of data set: Dopamine D2 receptor binding assay. As to conditions: [3H] Spiperone, HEK293 cells expressing D2 receptor. As to the method: (§1) This test was carried out according to the dopamine D2/D3 receptor binding assay and the 5-HT1A receptor binding assay described in Jiangsu Hengyi Pharmaceutical Co., Ltd.'s Patent CN 103130737 A. IC50 values were calculated from concentration-dependent reactions using a non-linear analysis program. Ki values were calculated from IC50 values by using Cheng-Prussoff equation, i.e. Ki=IC50/(1+[L]/KD), wherein Ki is the affinity of the drug to the receptor; […]; and KD is the affinity of radioligand to the receptor.
(I) Dopamine D2 Receptor Binding Assay
• a. Transfection of D2 Receptor Cells: by using calcium phosphate method, HEK293 cells were transfected with a plasmid vector containing the D2 receptor protein gene. The transfected cells were cultured in a culture solution containing G418, followed by a selection of monoclonal cell and radioligand binding assay, finally obtaining a stable cell line with stable expression of D2 receptor protein. • b. Materials for receptor binding assay: isotope ligand [^3H] Spiperone (113.0 Ci/mmol); available from Sigma-Aldrich Company; (+) spiperone, available from RBI company; GF/B glass fiber filter paper, available from Whatman Company; Tris imported and packaged; PPO, POPOP, available from Shanghai Reagent Chemical Company; lipid-soluble scintillation solution; and Beckman LS-6500 Multi-function Liquid Scintillation Counter. ii. Test Method • a. Treatment of cells: HEK-293 cells were infected with various recombinant viruses of the above genes, respectively, and the receptor proteins were highly expressed on the membranes after 48-72 hours. The cells were centrifuged at 1000 rpm for 5 minutes. The culture solution was discarded, and the cells were collected and stored in a refrigerator at −20° C. for standby. The cells were resuspended with Tris-HCl buffer (pH=7.5) when tested. • b. Competitive binding assay for receptor
The compound to be tested and the radio ligand, both 20 μL, and 160 μL of receptor proteins were added to the reaction test tubes to achieve a final concentration of 10 μmol/L for each of the compound to be tested and positive control, incubated in a water bath of 30° C. for 50 minutes and immediately transferred to an ice bath to terminate the reaction; placed on a Millipore cell sample collector, filtered by suction rapidly through a […] glass fiber filter, and eluted with 3 mL of eluent (50 mM Tris-HCl, pH7.5) for three times and dried with microwave for 5-6 minutes. The filter paper was transferred into a 0.5 mL centrifuge tube to which 500 μL of lipid-soluble scintillation solution was added, and settled away from light for more than 30 minutes. The radioactive intensity was determined by counting. The concentration of the compound was 10 μmol/L, and inhibition rate (%) of each compound to the binding of isotope ligands was calculated according to the following equation: Inhibition rate (I%)=(total binding tube cpm−compound cpm)/(total binding tube cpm—non-specific binding tube cpm)×100%. (II) Dopamine D3 Receptor Binding Assay

Another data set concerns the target Dopamine D3 receptor (Homo sapiens, UniProt P35462). Kind of data set: Dopamine D3 receptor binding assay. As to the method: as §1
The concentration of the compound was 10 μmol/L, and the assay was performed according to the method described in Journal of Pharmacology and Experimental Therapeutics 2010, 333 (1): 328.

For another data set, the target named is T2, 5-HT1A receptor (Homo sapiens, UniProt P08908).
T2 construct: expressed in transfected cells
T2 sequence (P08908 1-422): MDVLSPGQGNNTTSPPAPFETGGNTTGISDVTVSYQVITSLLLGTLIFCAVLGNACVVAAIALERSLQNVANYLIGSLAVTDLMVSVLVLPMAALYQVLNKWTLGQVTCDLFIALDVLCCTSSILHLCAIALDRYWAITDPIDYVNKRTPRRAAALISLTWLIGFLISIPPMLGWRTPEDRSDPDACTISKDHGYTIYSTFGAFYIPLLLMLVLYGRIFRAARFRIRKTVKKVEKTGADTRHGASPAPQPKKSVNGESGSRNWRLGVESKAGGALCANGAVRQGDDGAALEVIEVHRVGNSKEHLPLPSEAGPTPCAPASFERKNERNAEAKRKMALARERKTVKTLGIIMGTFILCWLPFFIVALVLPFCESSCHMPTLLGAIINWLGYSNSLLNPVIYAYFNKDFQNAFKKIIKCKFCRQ
Kind of data set: 5-HT1A receptor binding assay. The conditions noted are these: [3H] 8-OH-DPAT, HEK-293 cells expressing 5-HT1A receptor. As to the method:
as §1
(III) 5-HT1A Receptor Binding Assay
5-HT1A receptor isotope ligand [^3H] 8-OH-DPAT (available from PE Company); (+)5-hydroxytrptamine (available from Sigma Company); GF/B glass fiber filter paper (available from Whatman Company); lipid-soluble scintillation solution: PPO, POPOP (available from Shanghai Chemical Reagent Company); toluene (from Sinopharm Chemical Reagent Co., Ltd.); Tris imported and packaged.
Treatment of cells: HEK-293 cells which stably express the 5-HT1A receptor by gene recombination were cultured in DMEM+10% serum solution for 3-5 days and then collected with PBS. The cells were centrifuged at 3000 rpm and […] for 10 minutes. Afterwards, the supernate was discarded, and the cells were collected and stored in a refrigerator at −80° C. The cells were resuspended with D1 Binding Buffer (pH 7.4) when tested.
Inhibition rate of each compound of 10 umol/L to the binding of [^3H]8-OH-DPAT and the 5-HT1A receptor was determined by a general selection.

Data set [2] can be described thus: Acute toxicity assay, single oral administration. As to conditions: ICR, mouse, in vivo; single oral administration, Bliss method; read-out: LD50. As to the method:
Acute Toxicity Assay of the Cyclohexane Derivatives of the Present Invention
ICR mice orally administered with the compounds of the present invention were evaluated and their toxicity symptoms after oral administration were observed, as well as the mortality, which was calculated by Bliss method, thus the acute toxicities were compared.
• i. Preparation of solvent: Tween-80 of an appropriate amount was diluted with deionized water to a concentration of […] (g/v) Tween-80. • ii. […]. Administration: the test compound and solvent medium control groups (0.5% Tween-80) were administered orally.
Observations include but are not limited to: general condition, behavior, gait, eyes, mouth, nose, gastrointestinal tract, skin and hair and urogenital tract.

T1 sequence (P14416 whole entry, species assumed): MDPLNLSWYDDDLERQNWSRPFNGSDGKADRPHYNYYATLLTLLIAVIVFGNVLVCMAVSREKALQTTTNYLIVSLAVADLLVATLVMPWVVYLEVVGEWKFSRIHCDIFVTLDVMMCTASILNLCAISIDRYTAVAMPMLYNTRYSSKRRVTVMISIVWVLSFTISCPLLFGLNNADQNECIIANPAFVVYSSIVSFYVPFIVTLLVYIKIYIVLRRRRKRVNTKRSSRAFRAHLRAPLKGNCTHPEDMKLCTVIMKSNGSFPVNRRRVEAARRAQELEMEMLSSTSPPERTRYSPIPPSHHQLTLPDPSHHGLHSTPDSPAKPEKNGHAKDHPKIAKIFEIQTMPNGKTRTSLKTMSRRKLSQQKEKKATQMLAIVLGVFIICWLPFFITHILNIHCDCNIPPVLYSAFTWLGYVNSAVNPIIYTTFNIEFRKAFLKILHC
Dopamine D3 receptor, sequence (P35462 whole entry, species assumed): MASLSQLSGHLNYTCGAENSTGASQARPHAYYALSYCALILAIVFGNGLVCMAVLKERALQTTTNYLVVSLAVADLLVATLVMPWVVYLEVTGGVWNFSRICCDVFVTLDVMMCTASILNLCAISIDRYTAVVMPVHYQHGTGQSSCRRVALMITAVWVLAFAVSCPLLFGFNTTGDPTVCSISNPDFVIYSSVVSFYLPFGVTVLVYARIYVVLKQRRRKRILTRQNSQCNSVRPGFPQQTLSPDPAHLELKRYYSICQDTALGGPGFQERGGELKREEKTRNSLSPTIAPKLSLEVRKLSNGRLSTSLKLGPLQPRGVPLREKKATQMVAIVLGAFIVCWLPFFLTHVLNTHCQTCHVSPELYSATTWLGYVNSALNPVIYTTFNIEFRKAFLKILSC

`Cc1ccc2c(N3CCN(CC[C@H]4CC[C@H](NC(=O)N(C)C)CC4)CC3)noc2c1` [Compound 14, N′-[trans-4-[2-[4-(6-methyl-benzo[d]isoxazol)-4-piperazinyl]ethyl]cyclohexyl]-N,N-dimethylurea]: in data set [1], the “inhibition of high spontaneous activity of MK-801-induced rats” value (shortened to “inhibition”) is “significantly inhibited”, the “Total Distance within 61-150 minutes” value worked out at 150.28 ± 11.70 m and the “Improvement Rate” value amounted to 51.49%.
On the same counts, the results for `CN(C)C(=O)N[C@H]1CC[C@H](CCN2CCN(c3cccc4cscc34)CC2)CC1` [Compound 3, N′-[trans-4-[2-[4-(benzo[c]thiophene)-7-piperazinyl]ethyl]cyclohexyl]-N,N-dimethylurea] are “significantly inhibit”, 63.79 ± 10.8 m and 79.41%.
Consider `CN(C)C(=O)N[C@H]1CC[C@H](CCN2CCN(c3cccc4ccsc34)CC2)CC1` [drawing 29], for which the results for the pKi at Dopamine D2 receptor, at Dopamine D3 receptor and at 5-HT1A receptor were less than 6.00, 10.22 and 8.41, respectively.
Take `CN(C)C(=O)N[C@H]1CC[C@H](CCN2CCN(c3noc4cc(F)ccc34)CC2)CC1` [Compound 5, N′-[trans-4-[2-[4-(6-fluoro-benzo[d]isoxazol)-3-piperazinyl]ethyl]cyclohexyl]-N,N-dimethylurea]: in data set [1], the “inhibition” value is reported as “significantly inhibit”, the “Total Distance within 61-150 minutes” value amounted to 5.43 ± 1.7 m and the “Improvement Rate” value is 98.25%.
For the molecule `CN(C)C(=O)N[C@H]1CC[C@H](CCN2CCN(c3cccc4sccc34)CC2)CC1` [Compound 1, N′-[trans-4-[2-[4-(benzo[b]thiophene)-7-piperazinyl]ethyl]cyclohexyl]-N,N-dimethylurea], in data set [1], the “inhibition” value was “significantly inhibit”, the “Total Distance within 61-150 minutes” value is recorded as 73.09 ± 11.7 m and the “Improvement Rate” value is recorded as 76.41%.
For `CN(C)C(=O)N[C@H]1CC[C@H](CCN2CCN(c3cccc4cscc34)CC2)CC1` [drawing 36], in data set [2], the LD50 at 6 days was 1050 mg/kg.
Turning to `CN(C)C(=O)N[C@H]1CC[C@H](CCN2CCN(c3cccc4cscc34)CC2)CC1` [drawing 30], the results for the pKi at Dopamine D2 receptor, at Dopamine D3 receptor and on 5-HT1A receptor were 6.01, 10.15 and 8.43, respectively.
For the molecule `CN(C)C(=O)N[C@H]1CC[C@H](CCN2CCN(c3nsc4ccccc34)CC2)CC1` [Compound 4, N′-[trans-4-[2-[4-(benzo[d]isothiazolyl)-3-piperazinyl]ethyl]cyclohexyl]-N,N-dimethylurea], in data set [1], the “Total Distance within 61-150 minutes” value is listed as 232.18 ± 20.3 m and the “Improvement Rate” value was determined as 25.05%.
Regarding `CN(C)C(=O)N[C@H]1CC[C@H](CCN2CCN(c3noc4cc(F)ccc34)CC2)CC1` [drawing 32], the results for the pKi on Dopamine D2 receptor, on Dopamine D3 receptor and on 5-HT1A receptor were 8.89, 9.54 and 8.39, respectively.
In the case of `CN(C)C(=O)N[C@H]1CC[C@H](CCN2CCC(c3noc4cc(F)ccc34)CC2)CC1` [Compound 7, N′-[trans-4-[2-[4-(6-fluoro-benzo[d]isoxazol)-3-piperidyl]ethyl]cyclohexyl]-N,N-dimethylurea], in data set [1], the “inhibition” value is “significantly inhibited”, the “Total Distance within 61-150 minutes” value is 160.82 ± 12.91 m and the “Improvement Rate” value is 48.09%.
For the molecule `CN(C)C(=O)N[C@H]1CC[C@H](CCN2CCC(c3noc4cc(F)ccc34)CC2)CC1` [drawing 34], the pKi at Dopamine D2 receptor was less than 6.00; at Dopamine D3 receptor it was 9.82; at 5-HT1A receptor, 8.44.
For `CN(C)C(=O)N[C@H]1CC[C@H](CCN2CCN(c3ccc4c(Cl)noc4c3)CC2)CC1` [Compound 6, N′-[trans-4-[2-[4-(3-chloro-benzo[d]isoxazol)-6-piperazinyl]ethyl]cyclohexyl]-N,N-dimethylurea], in data set [1], the “inhibition” value is listed as “significantly inhibited”, the “Total Distance within 61-150 minutes” value came out at 171.78 ± 13.0 m and the “Improvement Rate” value is listed as 12.27%.
Turning to `CN(C)C(=O)N[C@H]1CC[C@H](CCN2CCN(c3cccc4sccc34)CC2)CC1` [drawing 31], the pKi on Dopamine D2 receptor is less than 6.00; at Dopamine D3 receptor, 10.22; on 5-HT1A receptor, 8.40.
Turning to `CN(C)C(=O)N[C@H]1CC[C@H](CCN2CCN(c3cccc4sccc34)CC2)CC1` [drawing 37], the LD50 at 6 days in data set [2] stood at 1080 mg/kg.
For `CN(C)C(=O)N[C@H]1CC[C@H](CCN2CCN(c3cccc4ccsc34)CC2)CC1` [drawing 35], the LD50 at 6 days in data set [2] came to 1100 mg/kg.
Consider `CN(C)C(=O)N[C@H]1CC[C@H](CCN2CCN(c3ccc4c(Cl)noc4c3)CC2)CC1` [drawing 33], for which the pKi at Dopamine D2 receptor is 6.60; on Dopamine D3 receptor it was 9.24; on 5-HT1A receptor it was 7.64.
Turning to `CN(C)C(=O)N[C@H]1CC[C@H](CCN2CCN(c3cccc4ccsc34)CC2)CC1` [Compound 2, N′-[trans-4-[2-[7-(benzo[b]thiophene)-7-piperazinyl]ethyl]cyclohexyl]-N,N-dimethylurea], in data set [1], the “inhibition” value was “significantly inhibit”, the “Total Distance within 61-150 minutes” value is 46.95 ± 10.3 m and the “Improvement Rate” value worked out at 84.84%.
